Data from US9637479B2, “Tartrate salt of 5-chloro-thiophene-2-carboxylic acid [(S)-2-[2-methyl-3-(2-oxo-pyrrolidin-1-yl)-benzenesulfonylamino]-3-(4-methyl-piperazin-1-yl)-3-oxo-propyl]amide” (SANOFI, priority 2013, dated 2017).
Where a name gives a salt, the structure may show the parent alone. Read-outs that look alike come from different tables or passages of the source.

Experiments:
Assay type in all cases: physicochemical
[1] = Physical properties: hygroscopicity, water uptake, behavior under saturated humidity; settings: for Behavior under saturated humidity 80° C.: sodium and L-lactate: after 24 hours
[2] = Test of stability in the solid state (stress degradation, one week of storage); settings: for Stress degradation conditions 80°/saturated humidity: one week of storage at 80° C. under saturated humidity; for Stress degradation conditions 80° C./dry: one week of storage at 80° C., stable = optically, chemically and physically
Procedure: The sodium, L-lactate and L-tartrate salts of the compound of formula (I) were analyzed after one week of storage, at: • 80° C. • 80° C. and under saturated humidity, […]

[3] = Test of stability in solution (strong oxidizing solution, H2O2 at 0.3%); proportion of main N-oxide impurity; settings: room temperature
Procedure: The sodium, L-lactate and L-tartrate salts of the compound of formula (I) were analyzed after one week of storage in a strong oxidizing solution: the three compounds were maintained in a solution of H2O2 at 0.3%, at room temperature. After either 6 hours or one week, the proportion of the main N-oxide impurity of the compound of formula (I) [drawing 4] was measured.

[4] = Test of solubility in different buffers
Procedure: The solubility of sodium, L-lactate and L-tartrate salts of the compound of formula (I) was analyzed in different buffers. The results are described in table below (solubility of the tested compound is expressed in mg/ml).

[5] = 0.2M pH = 9 hydregenocarbonate buffer

SMILES	Hygroscopicity [1]	Water uptake 80% RH 25° C. [1] [%]	Behavior under saturated humidity 80° C. [1]	Stress degradation conditions 80°/saturated humidity [2]	Stress degradation conditions 80° C./dry [2]	% of impurity (main N-oxide impurity) ([3]; after 1 week) [% after 1 week]	Solubility ([4]; 0.1M pH = 4 phosphate buffer) [µg/mL]	Solubility ([4]; 0.1M pH = 6.5 phosphate buffer) [µg/mL]	Solubility ([4]; 0.1M pH = 7.4 phosphate buffer) [µg/mL]	Solubility ([4]; 0.1N HCl) [µg/mL]	Solubility [4, 5] [µg/mL]	Solubility ([4]; Purified water) [µg/mL]	% of impurity (main N-oxide impurity) ([3]; after 6 hours) [% after 6 hours]	Solubility ([4]; 0.1N HCl, simulated gastric fluid, 0.1N HCl, read-out: Solubility) [µg/mL]	Solubility ([4]; hydrogenocarbonate buffer, pH 9, aqueous buffer, 0.2M pH = 9 hydregenocarbonate buffer, read-out: Solubility) [µg/mL]	Solubility ([4]; phosphate buffer, pH 4, aqueous buffer, 0.1M pH = 4 phosphate buffer, read-out: Solubility) [µg/mL]	Solubility ([4]; phosphate buffer, pH 6.5, aqueous buffer, 0.1M pH = 6.5 phosphate buffer, read-out: Solubility) [µg/mL]	Solubility ([4]; phosphate buffer, pH 7.4, aqueous buffer, 0.1M pH = 7.4 phosphate buffer, read-out: Solubility) [µg/mL]	Solubility ([4]; purified water, water, Purified water, read-out: Solubility) [µg/mL]
Cc1c(N2CCCC2=O)cccc1S(=O)(=O)N[C@@H](CNC(=O)c1ccc(Cl)s1)C(=O)N1CCN(C)CC1 [L-lactate salt, 5-chloro-thiophene-2-carboxylic acid [(S)-2-[2-methyl-3-(2-oxo-pyrrolidin-1-yl)-benzenesulfonylamino]-3-(4-methyl-piperazin-1-yl)-3-oxo-propyl]amide]	Hygroscopic	2.5	Gel formation-amorphous	slight degradation	stable*	6.9	>10000	>10000	9800	>10000	8500	>10000	–	–	–	–	–	–	–
Cc1c(N2CCCC2=O)cccc1S(=O)(=O)N[C@@H](CNC(=O)c1ccc(Cl)s1)C(=O)N1CCN(C)CC1 [L-tartrate salt, 5-chloro-thiophene-2-carboxylic acid [(S)-2-[2-methyl-3-(2-oxo-pyrrolidin-1-yl)-benzenesulfonylamino]-3-(4-methyl-piperazin-1-yl)-3-oxo-propyl]amide]	Slightly	0.9	Stable 7 days	stable	stable*	0.77	>10000	>10000	>10000	>10000	8300	>10000	–	–	–	–	–	–	–
Cc1c(N2CCCC2=O)cccc1S(=O)(=O)N[C@@H](CNC(=O)c1ccc(Cl)s1)C(=O)N1CCN(C)CC1 [Sodium salt, 5-chloro-thiophene-2-carboxylic acid [(S)-2-[2-methyl-3-(2-oxo-pyrrolidin-1-yl)-benzenesulfonylamino]-3-(4-methyl-piperazin-1-yl)-3-oxo-propyl]amide]	Highly	31.5	Deliquescence	huge degradation	stable*	–	–	–	–	–	–	–	25.4	> 10000	> 10000	8900	6500	6900	> 10000
